This is an account of results in ChEMBL document CHEMBL1145108, “Fragment screening and assembly: a highly efficient approach to a selective and cell active protein tyrosine phosphatase 1B inhibitor” (J Med Chem, 2003).

In experiment [1] the target is T1, Tyrosine-protein phosphatase non-receptor type 1 (Homo sapiens, UniProt P18031).
T1 sequence (P18031 whole entry): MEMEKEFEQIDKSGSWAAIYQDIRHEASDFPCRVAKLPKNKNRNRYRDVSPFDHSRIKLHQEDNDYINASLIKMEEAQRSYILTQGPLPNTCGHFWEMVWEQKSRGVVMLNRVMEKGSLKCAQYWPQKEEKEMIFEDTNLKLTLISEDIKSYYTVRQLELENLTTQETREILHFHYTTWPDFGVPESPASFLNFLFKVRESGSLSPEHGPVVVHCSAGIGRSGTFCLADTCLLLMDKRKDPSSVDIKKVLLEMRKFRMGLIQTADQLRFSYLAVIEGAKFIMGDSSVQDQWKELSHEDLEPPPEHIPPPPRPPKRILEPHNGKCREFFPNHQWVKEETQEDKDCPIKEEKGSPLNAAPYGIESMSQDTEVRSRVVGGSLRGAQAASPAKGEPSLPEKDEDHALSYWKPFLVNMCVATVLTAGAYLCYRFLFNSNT
Description: Binding affinity against protein tyrosine phosphatase PTB1B

Experiment [2] has as its target Tyrosine-protein phosphatase non-receptor type 2 (Homo sapiens, UniProt P17706). Put plainly: Inhibitory constant of compound against T cell protein tyrosine phosphatase was determined. Type of experiment: cell-based.
In experiment [3] the target is T1, Tyrosine-protein phosphatase non-receptor type 1. As to the kind of experiment: Dissociation constant against Protein-tyrosine phosphatase 1B receptor was determined.

Sequence of Tyrosine-protein phosphatase non-receptor type 2 (P17706 whole entry, looked up): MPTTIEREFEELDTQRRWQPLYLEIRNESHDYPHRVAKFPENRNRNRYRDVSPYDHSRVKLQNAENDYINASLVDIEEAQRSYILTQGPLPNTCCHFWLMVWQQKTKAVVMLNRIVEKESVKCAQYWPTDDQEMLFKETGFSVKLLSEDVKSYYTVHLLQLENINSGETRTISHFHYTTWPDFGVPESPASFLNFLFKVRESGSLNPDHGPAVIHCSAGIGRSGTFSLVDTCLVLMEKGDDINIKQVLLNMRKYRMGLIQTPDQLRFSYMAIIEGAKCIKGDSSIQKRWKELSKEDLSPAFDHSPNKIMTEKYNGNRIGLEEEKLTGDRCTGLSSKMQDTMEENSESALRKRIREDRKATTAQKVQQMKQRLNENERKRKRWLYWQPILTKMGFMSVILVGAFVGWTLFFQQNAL

As usually defined, the Ki is a dissociation constant, usually derived from enzyme kinetics or from competition with a known ligand. For the molecule `CCCC(=O)Nc1cccc(-c2cc(C(=O)O)no2)c1`, the results for the Ki in experiment [1] and in experiment [2] were 148 µM and 634 µM, respectively.
What is called Kd is the concentration at which binding is half-saturated. Regarding `O=C(O)c1cc(-c2ccc(Br)cc2)on1`, the dissociation constant Kd in experiment [3] stood at 800 µM.
